Test results reported in patent US9650388B2, “Form 2 crystalline polymorph of a salt of N-[1-6-(ethynyl-3-oxo-hexahydro-furo[3,2-B]pyrrole-4-carbonyl)-3-methyl-butyl]-4-[5-fluoro-2-(4-methyl-piperazinyl) thiazol-4-yl]-benzamide useful as cysteine protease inhibitor” (MEDIVIR AB, priority 2013, dated 2017).
In brackets after ≈: the same amount, converted by molar mass.

Assays:
Format in all cases: physicochemical
[1] = Thermodynamic aqueous solubility
Procedure: Thermodynamic Aqueous Solubility
The suspension was equilibrated at 25° C. for 24 hours then the pH was measured. The suspension was then filtered through a glass fibre C filter into a 96 well plate. […] Quantitation was by HPLC with reference to a standard solution of approximately 0.25 mg·ml^−1 in DMSO. Different volumes of the standard, diluted and undiluted sample solutions were injected.
Analysis was performed on an Agilent HP1100 series system equipped with a diode array detector and using ChemStation software vB.02.01-SR1.

[2] = Thermal analysis by DSC and TGA; settings: 10° C./min; for temperature of mass loss(es) on heating: TGA, Form 1: two distinct mass losses (FIG. 13), free base: a mass loss, probably water (FIG. 14)
Procedure: Differential Scanning Calorimetry (DSC)
DSC data were collected on a Mettler DSC 823e equipped with a 34 position auto-sampler. The instrument was calibrated for energy and temperature using certified indium. Typically 0.5-3 mg of each sample, in a pin-holed aluminium pan, was heated at 10° C./min from 25° C. to 300° C. A nitrogen purge at 50 ml/min was maintained over the sample.
Thermogravimetric Analysis (TGA)
TGA data were collected on a Mettler TGA/SDTA 851e equipped with a 34 position auto-sampler. The instrument was temperature calibrated using certified indium. Typically 5-30 mg of each sample was loaded onto a pre-weighed aluminium crucible and was heated at 10° C./min from ambient temperature to 400° C. A nitrogen purge at 50 ml/min was maintained over the sample.
Thermal analysis of Form 2 crystalline polymorph (a sample obtained using the method in Example 6) by DSC and TGA was undertaken using the method describe in General Methods. […]

[3] = Gravimetric vapour sorption (GVS); settings: 25° C.
Procedure: Gravimetric Vapour Sorption (GVS)
Sorption isotherms were obtained using a SMS DVS Intrinsic moisture sorption analyser, controlled by DVS Intrinsic Control software v1.0.0.30. The sample temperature was maintained at 25° C. by the instrument controls. The humidity was controlled by mixing streams of dry and wet nitrogen, with a total flow rate of 200 ml/min The relative humidity was measured by a calibrated Rotronic probe (dynamic range of 1.0-100% RH), located near the sample. The weight change, (mass relaxation) of the sample as a function of % RH was constantly monitored by the microbalance (accuracy ±0.005 mg).
Typically 5-20 mg of sample was placed in a tared mesh stainless steel basket under ambient conditions. The sample was loaded and unloaded at 40% RH and 25° C. (typical room conditions). A moisture sorption isotherm was performed as outlined below (2 scans giving 1 complete cycle). The standard isotherm was performed at 25° C. at 10% RH intervals over a 0-90% RH range. Data analysis was undertaken in Microsoft Excel using DVS Analysis Suite v6.0.0.7.
The sample was recovered after completion of the isotherm and re-analysed by XRPD.
Gravimetric vapour sorption analysis of Form 2 crystalline polymorph (a sample obtained using the method in Example 6) was undertaken using the method described in General Methods.

[4] = Solid state 13C NMR, environmental dependence of ketone:hydrate ratio; settings: as prepared 67:33
Procedure: The analysis was carried out using a Varian VNMRS instrument operating at 100.56 MHz for ^13C (399.88 MHz for 1H) and 376.24 MHz for ^19F with a 4 mm (rotor o.d.) magic-angle spinning probe. Carbon-13 spectra were recorded from the sample using a crosspolarization magic-angle spinning (CPMAS) technique without and with dipolar dephasing (interrupted decoupling). Appropriate acquisition conditions were established using a set of short trial measurements: recycle 5 s, contact time 5 ms. A sample spin-rate of 10.0 kHz was used along with two-pulse phase-modulated (TPPM) 1H decoupling (at a radiofrequency field approximately equivalent to 75 kHz). The sample was run as-received and at ambient probe temperature (˜30° C. at this spin rate). Spectra are referenced with respect to neat tetramethylsilane (by setting the high-frequency line from adamantane to 38.5 ppm). The ^19F spectrum was obtained by direct excitation following a 3.6 μs 90° pulse, with a 60 s relaxation delay, at spin rate of 14 kHz and with no 1H decoupling. The spectrum is referenced relative to CFCI3.
The analysis was carried out using a Varian VNMRS instrument operating at 100.56 MHz for ^13C (399.88 MHz for 1H) and a 6 mm (rotor o.d.) magic-angle spinning probe. Carbon-13 spectra were recorded from the sample using a cross-polarization magic-angle spinning (CPMAS) technique. […]
The ^13C solid state NMR spectrum of a sample of Form 2 crystalline polymorph produced using the method of Example 5 is illustrated in FIG. 5. Based on the integration of the 208 ppm (ketone) and 102 ppm (hydrate) signals, the ketone:hydrate ratio was determined to be 67:33.
The ^13C solid state NMR spectrum illustrated in FIG. 6 was recorded after the sample had been stored at a relative humidity of <2% for one week. […] The ^13C solid state NMR spectrum shown in FIG. 7 was recorded after the sample had been stored at 75% RH for one week. […] The ^13C solid state NMR spectrum shown in FIG. 8 was recorded at 80° C. and gives a ketone content of 68%.

| Molecule | solubility at 24 h ([1]; pH 5.8, thermodynamic from solid, suspension in water equilibrated at 25° C. for 24 hours, filtered, HPLC, pH of each suspension printed in same cell) | pH measured after equilibration of the solubility suspension ([1]; water, 25° C., 24 hours) | temperature of mass loss(es) on heating [2] | temperature at which degradation begins ([2]; DSC/TGA, nitrogen, small mass loss until this temperature (FIG. 12)) | reversibility of water uptake ([3]; 0-90% RH range) | water uptake ([3]; over the 0-90% RH range) | ketone share of ketone/hydrate signal intensity ([4]; after storage at 75% RH for one week (FIG. 7)) | ketone share of ketone/hydrate signal intensity ([4]; after storage at relative humidity <2% for one week (FIG. 6)) | ketone content ([4]; spectrum recorded at 80° C. (FIG. 8)) |
| --- | --- | --- | --- | --- | --- | --- | --- | --- | --- |
| C#C[C@@H]1CN(C(=O)[C@H](CC(C)C)NC(=O)c2ccc(-c3nc(N4CCN(C)CC4)sc3F)cc2)[C@@H]2C(=O)CO[C@H]12 [Compound I free base, N-[1-6-(ethynyl-3-oxo-hexahydro-furo[3,2-b]pyrrole-4-carbonyl)-3-methyl-butyl]-4-[5-fluoro-2-(4-methyl-piperazin-1-yl)thiazol-4-yl]-benzamide] | 300 µg/mL (≈ 528 µM) | 5.8 | below 110 °C | – | – | – | – | – | – |
| C#CC1CN(C(=O)C(CC(C)C)NC(=O)c2ccc(-c3nc(N4CCN(C)CC4)sc3F)cc2)C2C(=O)COC12.Cl (stereo not shown) [Form 1 crystalline polymorph, N-[1-6-(ethynyl-3-oxo-hexahydro-furo[3,2-b]pyrrole-4-carbonyl)-3-methyl-butyl]-4-[5-fluoro-2-(4-methyl-piperazin-1-yl)thiazol-4-yl]-benzamide monohydrochloride] | – | – | below 160 °C | – | – | – | – | – | – |
| N-[1-6-(ethynyl-3-oxo-hexahydro-furo[3,2-b]pyrrole-4-carbonyl)-3-methyl-butyl]-4-[5-fluoro-2-(4-methyl-piperazin-1-yl)thiazol-4-yl]-benzamide monohydrochloride and N-[1-6-(ethynyl-3-oxo-hexahydro-furo[3,2-b]pyrrole-4-carbonyl)-3-methyl-butyl]-4-[5-fluoro-2-(4-methyl-piperazin-1-yl)thiazol-4-yl]-benzamide hydrate monohydrochloride [Form 2 crystalline polymorph] | – | – | – | 160 °C | reversible | ~2.2% | 67% | 67% | 68% |
